From patent US20060172987A1 (DSM IP Assets B.V., priority 2003, published 2006)

Tests used:
Type in all cases: physicochemical
[1] = Free water content by dynamic vapour sorption (adsorption isotherm, VTI-SGA 100); details: equilibrium relative humidity of 30%, 25° C.
Text: The free water content of a sample can be determined by dynamic vapour sorption. The underlying principle is that the weight of the sample is monitored while it is contacted with air having a preconditioned relative humidity. As a result of water take-up or water release the sample weight will change until the equilibrium situation has been established. The sample weight in this equilibrium situation is the sample weight corresponding to the equilibrium relative humidity, the latter being the relative humidity of the preconditioned air with which the sample is contacted. By repeating this procedure for different values of the equilibrium relative humidity, the sample weight can be determined as a function of the equilibrium relative humidity. […]
As used herein, the free water content measured at an equilibrium relative humidity of 30% and at a temperature of 25° C. is in particular defined as ((w30-w10)/w10)*100%, wherein […]
The free water content, including the values for w30 and w10 are preferably determined using dynamic vapour sorption, for instance using a VTI-SGA 100 vapour sorption analyser. […]
Adsorption isotherms were determined using dynamic vapour sorption, using a VTI-SGA 100 vapour sorption analyser. […]

[2] = Particle size distribution by laser diffraction (Malvern particle sizer 2600 C)
Text: The d10 and d50 are known ways for indicating a particle size distribution, d50 referring to the value for the particle size such that 50 vol. % of the crystals has a particle size smaller than said value. The d50 is also referred to as average volume-based grain size. Likewise, d10 refers to the value for the particle size such that 10 vol. % of the crystals has a particle size smaller than said value. A preferred way for determining d10 and d50 is laser diffraction, preferably using Malvern equipment. A suitable apparatus for […] determining d10 and d50 is a Malvern particle sizer 2600 C obtainable from Malvern Instruments Ltd., Malvern UK, using an objective of f=300 mm and a beam length of is 14.30 mm. A polydisperse analysis model may advantageously be used.
The particle size distribution (including d10 and d50) was determined using a Malvern particle sizer 2600 C with objective f=300 mm, malvern sample measurement unit PS1 and a Malvern dry powder feeder PS 64. The beam length was 14.30 mm. A polydisperse analysis model was used.

[3] = Bulk density (USP 24, method I); details: for Bulk dens.: crystalline powder as obtained, trihydrate
Text: The crystalline powder according according to this aspect of the invention has improved flow properties, without having to be subjected to processes such as granulation, compactation, agglomeration or aggregation, has good colour properties, good stability and a high dissolution rate. If it would still be desired to subject the crystalline powder to processes such as granulation, compactation, agglomeration or aggregation, and the like, applying these processes is facilitated due to the improved flow properties of the crystalline powder according to this aspect of the invention. Moreover, an increased quantity of crystalline powder can be fed into a capsule of a given size. The bulk density is preferably determined according to USP 24, method I, (page 1913). Preferably, of the crystalline powder has a bulk density higher than 0.46 g/ml, preferably higher than 0.5 g/ml, more preferably higher than 0.55 g/ml. This further improves the flow properties. Moreover, an increased bulk density is advantageous as crystalline powder may be fed into a certain volume, for instance a capsule. There is no specific upper limit for the bulk density. The bulk density may be less than 0.8 g/ml, for instance less than 0.7 g/ml.

[4] = Tapped density (USP 24, method II); details: for Tap. dens.: crystalline powder as obtained, trihydrate
Text: In a preferred embodiment, the crystalline powder according to the invention has a tapped density higher than 0.6 g/ml, preferably higher than 0.7, more preferably higher than 0.8 g/ml. An increased tapped density improves the flow properties. Moreover, an increased tapped density is advantageous as more products may be fed into a certain volume, for instance a capsule. There is no specific upper limit for the tapped density. The tapped density may be less than 1.2 g/ml, for instance less than 1.1 g/ml, for instance less than 1.0 g/ml. The tapped density is preferably determined according to USP 24, method II, (page 1914).

[5] = crystalline powder as obtained, trihydrate
[6] = overheads fraction after air jet sieving, 75 μm screen, 10 minutes

SMILES	Free water content at ERH = 30% [1] [wt. %]	d10 ([2]; crystalline powder as obtained) [μm]	d50 ([2]; crystalline powder as obtained) [μm]	d10 [2, 5] [μm]	d50 [2, 5] [μm]	Bulk dens. [3] [g/mL]	Tap. dens. [4] [g/mL]	d10 [2, 6] [μm]	d50 [2, 6] [μm]	bulk density [3, 6] [g/mL]	tapped density [4, 6] [g/mL]
CC1(C)S[C@@H]2[C@H](NC(=O)[C@H](N)c3ccc(O)cc3)C(=O)N2[C@H]1C(=O)O [Comp. A, amoxicillin, reference compound]	0.11	2.7	8.3	–	–	–	–	–	–	–	–
CC1(C)S[C@@H]2[C@H](NC(=O)[C@H](N)c3ccc(O)cc3)C(=O)N2[C@H]1C(=O)O.O.O.O [Ex. I, amoxicillin trihydrate]	0.05	–	–	11.4	43.1	0.51	0.73	–	–	–	–
CC1(C)S[C@@H]2[C@H](NC(=O)[C@H](N)c3ccc(O)cc3)C(=O)N2[C@H]1C(=O)O.O.O.O [Example V, amoxicillin trihydrate]	–	–	–	17.4	66.3	0.25	0.47	–	–	–	–
CC1(C)S[C@@H]2[C@H](NC(=O)[C@H](N)c3ccc(O)cc3)C(=O)N2[C@H]1C(=O)O.O.O.O [Example VI, amoxicillin trihydrate]	–	–	–	19	61	0.58	0.79	36	86	0.59	0.74
